Like-named read-outs stand apart in the source and are kept apart here. Starred links: 1 amine or outer side, 2 acyl side, 3 side chain; linkers in the order of their positions; H or OH if unused. Non-standard residues stand in square brackets, D forms with d. Residues, ends and D or L forms follow the SMILES beside them. *: point of attachment. NOTA = O=C(O)CN1CCN(CC(=O)O)CCN(CC(=O)*)CC1; Sta = CC(C)C[C@H](N)[C@@H](O)CC(=O)O; X2 = O=C(COc1cccc(CN[*:1])c1)[*:2]; X1 = O=C(Cc1ccccc1CCN[*:1])[*:2]; X3 = O=C(COc1ccccc1CN[*:1])[*:2]
Tests used:
[1] = tested on: PC-3 xenograft bearing BALB/c nu/nu mice; test: Biodistribution in BALB/c nu/nu mice bearing PC-3 xenografts; format: in vivo; settings: 2 h p.i.
Protocol: (§1) Female BALB/c nu/nu mice of 18–22 g weight were used in the study. All procedures with animals were conducted in accordance with the EU Directive 2010/63/EU for animal experiments and Swedish national legislation concerning the protection of laboratory animals. The experiments were approved by the ethics committee for animal research in Uppsala (Sweden) with permit number 5.8.18–00473/2021. Animals were housed in individually ventilated cages, under a 12-h light/dark cycle with free access to food and water.
(§2) For tumor inoculation, 8·10^6 PC-3 cells in 100 µL PBS were injected subcutaneously into the right hind leg of mice. Mouse weight and tumor size were measured every 2–3 days, and tumor volume was estimated by ellipsoid approximation. A predefined humane endpoint of the experiment was either a 15% weight loss or a tumor volume of 1000 mm^3, neither of which was reached.
(§3) Four weeks after tumor cell implantation, mice were randomized and divided into 6 groups (4 animals / group): 3 of them received treatment with ^68Ga-radiolabeled peptides, while the other 3 received the same peptides in addition to 5 nmol of non-labeled NOTA-PEG2-RM26 peptide for GRPR-blocking. Peptides were injected intravenously via the tail veins at a dose of 50 pmol (700 kBq radioactivity dose).
(§4) At 2 h post injection, mice were sacrificed by overdose of Ketamine/Xylazine anesthesia, and blood was collected by heart puncture. Then, liver, spleen, lungs, pancreas, kidneys, small intestine, stomach, tail, femur bones, tumor and muscle from the opposite legs were collected, weighed, and radioactivity was measured using a Wizard 2480 gamma counter. Data are presented as percentages of injected activity per gram of tissue (%IA/g).

[2] = Octanol-water distribution coefficient (LogD); format: physicochemical; settings: n-octanol/PBS; n = 3; mean ± sd
Protocol: Octanol-water distribution coefficient (LogD) was determined by adding 10 pmol of radiopeptide to an Eppendorf tube containing 500 µL of phosphate-buffered saline (PBS) and 500 µL of n-octanol. Each tube was vortexed for 2 min and centrifuged at 6000 g for 5 min. Three 100 µL fractions were collected from each phase, and their radioactivity was measured.

[3] = Biodistribution in BALB/c nu/nu mice bearing PC-3 xenografts; format: in vivo; settings: female, BALB/c nu/nu, mouse, iv, total radioactivity
Protocol: as §1, §2, §3, §4

[4] = Complex stability of 68Ga-labeled peptides in PBS or EDTA solution in PBS (iTLC); format: physicochemical; settings: n = 3, mean ± sd
GRPR = target: T1, GRPR (Homo sapiens, UniProt P30550); test: Competitive binding against [125I]I-Tyr4-bombesin on PC-3 cells; settings: natGa-loaded peptide vs [125I]I-Tyr4-bombesin, 5 h at 4 °C
T1 construct: endogenous in cells; host or cells: PC-3 human prostate cancer cells
Protocol: In short, 30 nmol of the respective peptide was mixed with 10 µL of 9 mM GaCl3, 150 µL of 0.1 M HCl, and 250 µL of 1 M sodium acetate (pH 4.5). The mixture was then incubated at 70 °C for 60 min.
PC-3 cells were seeded in 12-well plates at 10^5 cells per well density and incubated overnight. Then, the media was aspirated, and cells were washed with 500 µL of cold PBS buffer, containing 1% w/v bovine serum albumin (PBS/BSA buffer). Then the cells were treated with 350 µL of cold PBS/BSA buffer, 50 µL of the metalated ligand at different concentrations (from 0 to 1000 nM), and 100 µL of [^125I]I-Tyr^4-bombesin (PerkinElmer, Waltham, MA, USA) in PBS/1% BSA buffer, at 24.6 fmol/well concentration. Cells were incubated for 5 h at 4°C to reach equilibrium of binding. After that, the supernatant was removed, cells were washed with cold PBS buffer containing 1% BSA, and collected using 1 mL of 1 M NaOH heated to 37 °C. The radioactivity was measured by a Wizard 2480 gamma counter (PerkinElmer, Waltham, MA, USA). The experiments were performed in triplicates (n = 3) and the data were fitted to the curves with a nonlinear regression model in GraphPad Prism 7.

T1 sequence (P30550 whole entry): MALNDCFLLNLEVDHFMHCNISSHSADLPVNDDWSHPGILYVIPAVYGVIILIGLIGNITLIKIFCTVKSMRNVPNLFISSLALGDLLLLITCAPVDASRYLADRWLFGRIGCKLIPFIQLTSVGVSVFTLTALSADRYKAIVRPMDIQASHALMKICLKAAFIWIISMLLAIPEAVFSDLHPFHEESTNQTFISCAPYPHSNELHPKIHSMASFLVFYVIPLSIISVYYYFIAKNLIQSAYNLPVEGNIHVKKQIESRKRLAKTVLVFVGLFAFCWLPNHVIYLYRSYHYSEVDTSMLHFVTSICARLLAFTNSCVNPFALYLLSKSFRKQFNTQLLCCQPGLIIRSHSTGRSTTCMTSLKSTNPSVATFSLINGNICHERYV

CC(=O)N[C@@H](CCCCNC(=O)CN1CCN(CC(=O)O)CCN(CC(=O)O)CC1)C(=O)NCCc1ccccc1CC(=O)N[C@H](Cc1ccccc1)C(=O)N[C@@H](CCC(N)=O)C(=O)N[C@@H](Cc1c[nH]c2ccccc12)C(=O)N[C@@H](C)C(=O)N[C@H](C(=O)NCC(=O)N[C@@H](Cc1c[nH]cn1)C(=O)N[C@@H](CC(C)C)[C@@H](O)CC(=O)N[C@@H](CC(C)C)C(N)=O)C(C)C [NOTA-oET-RM26] (Ac-K(NOTA)[X1][dF]QWAVGH[Sta]L-NH2)
peptide accumulation in the liver and lungs [1]: lowest activity uptake
tumor-to-liver ratio [1]: best tumor-to-liver ratio

CC(=O)N[C@@H](CCCCNC(=O)CN1CCN(CC(=O)O)CCN(CC(=O)O)CC1)C(=O)NCc1ccccc1OCC(=O)N[C@H](Cc1ccccc1)C(=O)N[C@@H](CCC(N)=O)C(=O)N[C@@H](Cc1c[nH]c2ccccc12)C(=O)N[C@@H](C)C(=O)N[C@H](C(=O)NCC(=O)N[C@@H](Cc1c[nH]cn1)C(=O)N[C@@H](CC(C)C)[C@@H](O)CC(=O)N[C@@H](CC(C)C)C(N)=O)C(C)C [[^68Ga]Ga-NOTA-oMA-RM26, metal not drawn] (Ac-K(NOTA)[X3][dF]QWAVGH[Sta]L-NH2)
logD [2]: -0.86 ± 0.02
tissue uptake at 2 h ([3]; blood, 50 pmol, 2 h p.i., i.v., read-out: Radionuclide concentration, Blood): 0.47 ± 0.17 %ID/g
tissue uptake at 2 h ([3]; blood, Blockade (co-injection of NOTA-PEG2-RM26), 2 h, read-out: Radionuclide concentration, Blood): 0.22 ± 0.08 %ID/g
tissue uptake at 2 h ([3]; bone, 50 pmol, 2 h p.i., i.v., read-out: Radionuclide concentration, Bone): 0.34 ± 0.05 %ID/g
tissue uptake at 2 h ([3]; bone, Blockade (co-injection of NOTA-PEG2-RM26), 2 h, read-out: Radionuclide concentration, Bone): 0.23 ± 0.03 %ID/g
tissue uptake dose at 2 h ([3]; carcass, 50 pmol, 2 h p.i., i.v., read-out: Radionuclide quantity, Carcass): 2.9 ± 0.4 %ID
tissue uptake dose at 2 h ([3]; carcass, Blockade (co-injection of NOTA-PEG2-RM26), 2 h, read-out: Radionuclide quantity, Carcass): 5.9 ± 2.7 %ID
tissue uptake dose at 2 h ([3]; gastrointestinal tract, 50 pmol, 2 h p.i., i.v., read-out: Radionuclide quantity, Gastrointestinal tract): 6.5 ± 0.7 %ID
tissue uptake dose at 2 h ([3]; gastrointestinal tract, Blockade (co-injection of NOTA-PEG2-RM26), 2 h, read-out: Radionuclide quantity, Gastrointestinal tract): 4.1 ± 2.1 %ID
tissue uptake at 2 h ([3]; kidneys, 50 pmol, 2 h p.i., i.v., read-out: Radionuclide concentration, Kidneys): 6.3 ± 0.9 %ID/g
tissue uptake at 2 h ([3]; kidneys, Blockade (co-injection of NOTA-PEG2-RM26), 2 h, read-out: Radionuclide concentration, Kidneys): 6.2 ± 1.3 %ID/g
tissue uptake at 2 h ([3]; liver, 50 pmol, 2 h p.i., i.v., read-out: Radionuclide concentration, Liver): 3.5 ± 0.5 %ID/g
tissue uptake at 2 h ([3]; liver, Blockade (co-injection of NOTA-PEG2-RM26), 2 h, read-out: Radionuclide concentration, Liver): 1.4 ± 0.4 %ID/g
tissue uptake at 2 h ([3]; lungs, 50 pmol, 2 h p.i., i.v., read-out: Radionuclide concentration, Lungs): 5.7 ± 1.5 %ID/g
tissue uptake at 2 h ([3]; lungs, Blockade (co-injection of NOTA-PEG2-RM26), 2 h, read-out: Radionuclide concentration, Lungs): 3.5 ± 2.2 %ID/g
tissue uptake at 2 h ([3]; muscle, 50 pmol, 2 h p.i., i.v., read-out: Radionuclide concentration, Muscle): 0.16 ± 0.05 %ID/g
tissue uptake at 2 h ([3]; muscle, Blockade (co-injection of NOTA-PEG2-RM26), 2 h, read-out: Radionuclide concentration, Muscle): 0.21 ± 0.09 %ID/g
tissue uptake at 2 h ([3]; pancreas, 50 pmol, 2 h p.i., i.v., read-out: Radionuclide concentration, Pancreas): 21 ± 5.2 %ID/g
tissue uptake at 2 h ([3]; pancreas, Blockade (co-injection of NOTA-PEG2-RM26), 2 h, read-out: Radionuclide concentration, Pancreas): 2.5 ± 0.6 %ID/g
tissue uptake at 2 h ([3]; small intestine, 50 pmol, 2 h p.i., i.v., read-out: Radionuclide concentration, Small Intestines): 3.4 ± 1.3 %ID/g
tissue uptake at 2 h ([3]; small intestine, Blockade (co-injection of NOTA-PEG2-RM26), 2 h, read-out: Radionuclide concentration, Small Intestines): 0.61 ± 0.13 %ID/g
tissue uptake at 2 h ([3]; spleen, 50 pmol, 2 h p.i., i.v., read-out: Radionuclide concentration, Spleen): 1.2 ± 0.3 %ID/g
tissue uptake at 2 h ([3]; spleen, Blockade (co-injection of NOTA-PEG2-RM26), 2 h, read-out: Radionuclide concentration, Spleen): 0.37 ± 0.08 %ID/g
tissue uptake at 2 h ([3]; stomach, 50 pmol, 2 h p.i., i.v., read-out: Radionuclide concentration, Stomach): 3.5 ± 0.7 %ID/g
tissue uptake at 2 h ([3]; stomach, Blockade (co-injection of NOTA-PEG2-RM26), 2 h, read-out: Radionuclide concentration, Stomach): 1.1 ± 0.7 %ID/g
tissue uptake dose at 2 h ([3]; total (sum of the measured activities), 50 pmol, 2 h p.i., i.v., sum of the measured activities, read-out: Radionuclide quantity, Total): 19.8 ± 2.6 %ID
tissue uptake dose at 2 h ([3]; total, Blockade (co-injection of NOTA-PEG2-RM26), 2 h, read-out: Radionuclide quantity, Total): 15.7 ± 2.9 %ID
tissue uptake at 2 h ([3]; tumor (PC-3 xenograft), 50 pmol, 2 h p.i., i.v., PC-3 xenograft, read-out: Radionuclide concentration, Tumor): 10.2 ± 2.7 %ID/g
tissue uptake at 2 h ([3]; tumor (PC-3 xenograft), Blockade (co-injection of NOTA-PEG2-RM26), 2 h, read-out: Radionuclide concentration, Tumor): 1 ± 0.4 %ID/g
remaining at 1 h, 1 µM ([4]; PBS buffer, pH 7.4, incubation at 37 °C for 1 h in PBS): 91.7 ± 5.1%
Stability in PBS with EDTA ([4]; incubation at 37 °C for 1 h in PBS with 1000-fold molar excess of EDTA, in % (unit assumed)): 91.3 ± 5.2

CC(=O)N[C@@H](CCCCNC(=O)CN1CCN(CC(=O)O)CCN(CC(=O)O)CC1)C(=O)NCc1cccc(OCC(=O)N[C@H](Cc2ccccc2)C(=O)N[C@@H](CCC(N)=O)C(=O)N[C@@H](Cc2c[nH]c3ccccc23)C(=O)N[C@@H](C)C(=O)N[C@H](C(=O)NCC(=O)N[C@@H](Cc2c[nH]cn2)C(=O)N[C@@H](CC(C)C)[C@@H](O)CC(=O)N[C@@H](CC(C)C)C(N)=O)C(C)C)c1 [^natGa-NOTA-mMA-RM26, metal not drawn] (Ac-K(NOTA)[X2][dF]QWAVGH[Sta]L-NH2)
IC50 (GRPR): 0.27 nM

CC(=O)N[C@@H](CCCCNC(=O)CN1CCN(CC(=O)O)CCN(CC(=O)O)CC1)C(=O)NCCc1ccccc1CC(=O)N[C@H](Cc1ccccc1)C(=O)N[C@@H](CCC(N)=O)C(=O)N[C@@H](Cc1c[nH]c2ccccc12)C(=O)N[C@@H](C)C(=O)N[C@H](C(=O)NCC(=O)N[C@@H](Cc1c[nH]cn1)C(=O)N[C@@H](CC(C)C)[C@@H](O)CC(=O)N[C@@H](CC(C)C)C(N)=O)C(C)C [^natGa-NOTA-oET-RM26, metal not drawn] (Ac-K(NOTA)[X1][dF]QWAVGH[Sta]L-NH2)
IC50 (GRPR): 3.4 nM

CC(=O)N[C@@H](CCCCNC(=O)CN1CCN(CC(=O)O)CCN(CC(=O)O)CC1)C(=O)NCc1ccccc1OCC(=O)N[C@H](Cc1ccccc1)C(=O)N[C@@H](CCC(N)=O)C(=O)N[C@@H](Cc1c[nH]c2ccccc12)C(=O)N[C@@H](C)C(=O)N[C@H](C(=O)NCC(=O)N[C@@H](Cc1c[nH]cn1)C(=O)N[C@@H](CC(C)C)[C@@H](O)CC(=O)N[C@@H](CC(C)C)C(N)=O)C(C)C [^natGa-NOTA-oMA-RM26, metal not drawn] (Ac-K(NOTA)[X3][dF]QWAVGH[Sta]L-NH2)
IC50 (GRPR): 1.3 nM

Source: PMC12332157, “A preclinical study on the influence of linkers in [^68Ga]Ga-NOTA-X-RM26 radiotracers for PET imaging of GRPR expression” (EJNMMI Research, 2025)
